Test results taken from patent US20240390434A1, “PROBIOTIC ENHANCERS AND USES THEREOF” (Blis Technologies Limited, priority 2021, published 2024).

Columns and labels:
Format in all cases: cell-based
indicator strains = experiment: Deferred antagonism assay, producer S. salivarius M18: total strains inhibited
Method: (§1) 1-2 producer strain colonies were transferred from a stock plate into 900 μL of suspension solution using a fresh cotton swab. Following this, suspensions were vortexed, and a sample was inoculated onto solid culture media using a fresh cotton swab. The inoculation was a streak that runs diametrically across the agar plate in a 1.5 cm wide strip. The plate was then incubated. Following incubation all visible colonies were removed by swabbing them from the agar surface. The plates were then treated with chloroform by dispensing 2 ml of chloroform onto 4 cm×4 cm piece of cloth and sealing the inverted agar plate on top for 30 minutes. The plates were then air dried for 30 minutes following chloroforming. 1-2 indicator strain colonies were then transferred from a stock plate into complementary suspension solution. The suspensions were then vortexed, and a sample was inoculated onto the same agar surface. These samples were streaked in a perpendicular direction to the initial producer streak.
(§2) Each indicator streak was prepared with fresh a suspension containing cells from a corresponding stock plate containing the indicator strain of interest. Indicator strains suspension samples were transferred using a fresh cotton swab. Results were measured by qualitatively reviewing the subsequent (if any) sizes of the zones of inhibition (ZOI) of indicator strain colony growth. A positive result is when there is a distinctive reduction or complete inhibition of indicator colony growth on the culture medium.
(§3) CABCa agar plates containing various concentrations of saccharide were prepared according to the methods described in Method 1. Producer strains were transferred from stock agar plates into 900 μL THB using a fresh cotton swab. A plastic spread plater was cut to approximately 1.2 cm width and then dipped into ethanol and left to air dry to ensure sterility. A 100 μL sample of the producer strain suspension was then dispensed onto the agar surface in a straight line running diametrically across the agar surface in (approximately) 20 μL spots. The spots were spaced approximately 1.5 cm apart from each other. The plastic spreader was then used to evenly distribute the spots across the agar surface in a 1.5 cm wide strip. This step was taken to ensure an even producer streak was inoculated onto the agar surface and provided an approximate measure of the initial inoculum concentration. Separate plastic spreaders were used for samples containing different producer strains. The samples were left to soak into the agar surface until there was no visible liquid remaining on the agar surface (approximately 20 minutes). Following producer streak preparations, the deferred antagonism assay protocol was followed as per Method 2. Results were recorded by measuring the size of the zone of inhibition (ZOI) in mm.
(§4) A dose response assay was carried out according to method 3 above, except a 1.2 cm streak was used. For the individual saccharide testing the pH of the producer streak was adjusted after the growth of producer to change the acidic conditions.
(§5) A deferred antagonism assay was conducted using K12 or M18 raw ingredient suspended in Todd Hewitt broth (THB). This was spread as a 1.2 cm streak containing approximately 1-2×10^6 cfu down the middle of a CABCa control or CABCa galactose supplemented test plate. After 18 hrs growth at 37° C. with 5% CO2, bacterial growth was removed, and the pH of the agar in the initial streak was measured and adjusted to a pH of 6.5-7.5 using 0.5M sodium carbonate pH11 before sterilizing the agar surface using chloroform vapor. Bacterial test strains were suspended in i-THB before being swabbed across the plates perpendicular to the initial streak. Plates were incubated for a further 18 hrs incubation at 37° C. with 5% CO2 before measuring (mm) any zones of inhibition for each test strain, […]

S. constellatus T29 = experiment: Deferred antagonism assay, producer S. salivarius K12
Method: as §1, §2, §3, §4, §5

S. aureus A222 = experiment: as above
Method: as §1, §2, §3, §4, §5

S. pyogenes 71-698 = experiment: as above
Method: as §1, §2, §3, §4, §5

[1] = test system: indicator bacterial test strains; experiment: Inhibitory activity of freeze dried raw ingredient powder, K12; conditions: galactose 0.5% w/w; raffinose 2.5% w/w; or combination
Method: Method: The amount of raffinose and galactose used was calculated based on the volume of the area of the producer streak, (which was calculated to be 4.25 g) to allow for the absorption of the saccharides into the agar. Based on this, amount of 0.021 g (i.e. 0.5% w/w galactose of 4.25 g agar volume) of galactose, 0.11 g (i.e 2.5% w/w) of raffinose and the combination of galactose (0.5% w/w) and raffinose (2.5% w/w) (0.13 g total) were weighed into sterile containers. K12 and/or M18 raw ingredient were suspended and diluted with sterile distilled water to a concentration of 1-2×10^6 cfu/100 μl. Then, […] of K12 only, M18 only, and K12±M18 suspensions were spread as a 1 cm streak down the middle of a CABCa agar plate using a sterile spreader. […] Bacterial growth was then removed using a microscope slide, and the pH of the agar in the producer streak area was measured and adjusted to pH 6.5-7.5 using 0.5M sodium carbonate (pH 11) before surface sterilizing the plates with chloroform vapour. […] Zones of inhibition for each test organism were then measured in mm using a ruler. The amount of raffinose and galactose to be used was calculated based on the volume of the area of the producer streak, (which was calculated to be 4.25 g) to allow for absorption into the agar.

[2] = K12, Raffinose 1.7% wt, pH adjusted
[3] = K12, Raffinose 2.5% wt, pH adjusted
[4] = K12, Raffinose 3.3% wt, pH adjusted
[5] = K12, Raffinose 5% wt, pH adjusted
[6] = K12, Raffinose 10% wt, pH adjusted

O=C[C@H](O)[C@@H](O)[C@@H](O)[C@H](O)CO [Galactose, D-galactose]
Total stains inhibited (indicator strains; Galactose 0.5% w/w): 5/7 | Total stains inhibited (indicator strains; Galactose 1.25% w/w): 4/7 | Total stains inhibited (indicator strains; Galactose 1.7% w/w): 1/7 | Total stains inhibited (indicator strains; Galactose 2.5% w/w): 2/7 | Total stains inhibited (indicator strains; Galactose 3.3% w/w): 5/7 | Total stains inhibited (indicator strains; Galactose 5% w/w): 2/7 | zone of inhibition at 0.5 % strength (S. constellatus T29; Streptococcus constellatus, T29, K12, Galactose 0.5% w/w, read-out: Size of zone inhibition normalised to control, S. constellatus T29): 14 mm | zone of inhibition at 1.25 % strength (S. constellatus T29; Streptococcus constellatus, T29, K12, Galactose 1.25% w/w, read-out: Size of zone inhibition normalised to control, S. constellatus T29): 15 mm | zone of inhibition at 1.7 % strength (S. constellatus T29; Streptococcus constellatus, T29, K12, Galactose 1.7% w/w, read-out: Size of zone inhibition normalised to control, S. constellatus T29): 12 mm | zone of inhibition at 2.5 % strength (S. constellatus T29; Streptococcus constellatus, T29, K12, Galactose 2.5% w/w, read-out: Size of zone inhibition normalised to control, S. constellatus T29): 13 mm | zone of inhibition at 3.3 % strength (S. constellatus T29; Streptococcus constellatus, T29, K12, Galactose 3.3% w/w, read-out: Size of zone inhibition normalised to control, S. constellatus T29): 10 mm | zone of inhibition at 5 % strength (S. constellatus T29; Streptococcus constellatus, T29, K12, Galactose 5% w/w, read-out: Size of zone inhibition normalised to control, S. constellatus T29): 0 mm | Inhibitory activity of S. salivarius K12 in presence of saccharides, S. aureus A222 (S. aureus A222; K12, saccharide range 0.83%-3.3% w/v): ✓ | zone of inhibition at 0.5 % strength (S. aureus A222; Staphylococcus aureus, A222, K12, Galactose 0.5% w/w, read-out: Size of zone inhibition normalised to control, S. aureus A222): 12 mm | zone of inhibition at 1.25 % strength (S. aureus A222; Staphylococcus aureus, A222, K12, Galactose 1.25% w/w, read-out: Size of zone inhibition normalised to control, S. aureus A222): 8 mm | zone of inhibition at 1.7 % strength (S. aureus A222; Staphylococcus aureus, A222, K12, Galactose 1.7% w/w, read-out: Size of zone inhibition normalised to control, S. aureus A222): 9 mm | zone of inhibition at 2.5 % strength (S. aureus A222; Staphylococcus aureus, A222, K12, Galactose 2.5% w/w, read-out: Size of zone inhibition normalised to control, S. aureus A222): 6 mm | zone of inhibition at 3.3 % strength (S. aureus A222; Staphylococcus aureus, A222, K12, Galactose 3.3% w/w, read-out: Size of zone inhibition normalised to control, S. aureus A222): 0 mm | zone of inhibition at 5 % strength (S. aureus A222; Staphylococcus aureus, A222, K12, Galactose 5% w/w, read-out: Size of zone inhibition normalised to control, S. aureus A222): 0 mm | zone of inhibition at 0.5 % strength (S. pyogenes 71-698; Streptococcus pyogenes, 71698, K12, Galactose 0.5% w/w, read-out: Size of zone inhibition normalised to control, S. pyogenes 71-698): 4.5 mm | zone of inhibition at 1.25 % strength (S. pyogenes 71-698; Streptococcus pyogenes, 71698, K12, Galactose 1.25% w/w, read-out: Size of zone inhibition normalised to control, S. pyogenes 71-698): 3.5 mm | zone of inhibition at 1.7 % strength (S. pyogenes 71-698; Streptococcus pyogenes, 71698, K12, Galactose 1.7% w/w, read-out: Size of zone inhibition normalised to control, S. pyogenes 71-698): 3.5 mm | zone of inhibition at 2.5 % strength (S. pyogenes 71-698; Streptococcus pyogenes, 71698, K12, Galactose 2.5% w/w, read-out: Size of zone inhibition normalised to control, S. pyogenes 71-698): 5.5 mm | zone of inhibition at 3.3 % strength (S. pyogenes 71-698; Streptococcus pyogenes, 71698, K12, Galactose 3.3% w/w, read-out: Size of zone inhibition normalised to control, S. pyogenes 71-698): 1.5 mm | zone of inhibition at 5 % strength (S. pyogenes 71-698; Streptococcus pyogenes, 71698, K12, Galactose 5% w/w, read-out: Size of zone inhibition normalised to control, S. pyogenes 71-698): 0 mm | inhibitory activity of freeze-dried raw ingredient powder of K12 [1]: induced the inhibitory activity

OC[C@H]1O[C@H](OC[C@H]2O[C@H](O[C@]3(CO)O[C@H](CO)[C@@H](O)[C@@H]3O)[C@H](O)[C@@H](O)[C@@H]2O)[C@H](O)[C@@H](O)[C@H]1O [Raffinose, D-(+) Raffinose pentahydrate]
Total number of strains inhibited (indicator strains; Raffinose 1.7% wt): 6 | Total number of strains inhibited (indicator strains; Raffinose 1.7% wt, pH adjusted): 6 | Total number of strains inhibited (indicator strains; Raffinose 2.5% wt): 7 | Total number of strains inhibited (indicator strains; Raffinose 2.5% wt, pH adjusted): 6 | Total number of strains inhibited (indicator strains; Raffinose 3.3% wt): 6 | Total number of strains inhibited (indicator strains; Raffinose 3.3% wt, pH adjusted): 6 | Total number of strains inhibited (indicator strains; Raffinose 5% wt): 7 | Total number of strains inhibited (indicator strains; Raffinose 5% wt, pH adjusted): 6 | Total number of strains inhibited (indicator strains; Raffinose 10% wt): 2 | Total number of strains inhibited (indicator strains; Raffinose 10% wt, pH adjusted): 1 | inhibition by K12 of S. constellatus T-29 (S. constellatus T29; 0.5 to 10% w/v raffinose): increase in inhibition | Zone of inhibition S. constellatus T29 (S. constellatus T29; K12, Raffinose 1.7% wt): 8 mm | Zone of inhibition S. constellatus T29 (S. constellatus T29; [2]): 4 mm | Zone of inhibition S. constellatus T29 (S. constellatus T29; K12, Raffinose 2.5% wt): 22 mm | Zone of inhibition S. constellatus T29 (S. constellatus T29; [3]): 18 mm | Zone of inhibition S. constellatus T29 (S. constellatus T29; [4]): 16 mm | Zone of inhibition S. constellatus T29 (S. constellatus T29; [5]): 12 mm | Zone of inhibition S. constellatus T29 (S. constellatus T29; K12, Raffinose 10% wt): 2 mm | Zone of inhibition S. constellatus T29 (S. constellatus T29; [6]): 11 mm | sensitivity of S. aureus A222 to K12 (S. aureus A222; 1.25, 2.5, 5 and 10% w/v raffinose added): sensitive | Zone of inhibition S. aureus A222 (S. aureus A222; K12, Raffinose 1.7% wt): 12 mm | Zone of inhibition S. aureus A222 (S. aureus A222; [2]): 8 mm | Zone of inhibition S. aureus A222 (S. aureus A222; K12, Raffinose 2.5% wt): 15 mm | Zone of inhibition S. aureus A222 (S. aureus A222; [3]): 15 mm | Zone of inhibition S. aureus A222 (S. aureus A222; K12, Raffinose 3.3% wt): 16 mm | Zone of inhibition S. aureus A222 (S. aureus A222; [4]): 13 mm | Zone of inhibition S. aureus A222 (S. aureus A222; K12, Raffinose 5% wt): 14 mm | Zone of inhibition S. aureus A222 (S. aureus A222; [5]): 14 mm | Zone of inhibition S. aureus A222 (S. aureus A222; K12, Raffinose 10% wt): 13 mm | Zone of inhibition S. aureus A222 (S. aureus A222; [6]): 13 mm | Inhibitory activity of S. salivarius K12 in presence of saccharides, S. aureus A222 (S. aureus A222; K12, saccharide 3.3% w/v): ✓ | Inhibitory activity of S. salivarius K12 in presence of saccharides, S. aureus A222 (S. aureus A222; K12, saccharide range 2.5%-10% w/v): ✓ | inhibition by K12 of S. pyogenes (S. pyogenes 71-698; 0.5 to 10% w/v raffinose): increase in inhibition | Zone of inhibition S. pyogenes 71-698 (S. pyogenes 71-698; K12, Raffinose 1.7% wt): 10 mm | Zone of inhibition S. pyogenes 71-698 (S. pyogenes 71-698; [2]): 4 mm | Zone of inhibition S. pyogenes 71-698 (S. pyogenes 71-698; K12, Raffinose 2.5% wt): 9 mm | Zone of inhibition S. pyogenes 71-698 (S. pyogenes 71-698; [3]): 3 mm | Zone of inhibition S. pyogenes 71-698 (S. pyogenes 71-698; K12, Raffinose 3.3% wt): 11 mm | Zone of inhibition S. pyogenes 71-698 (S. pyogenes 71-698; K12, Raffinose 5% wt): 7 mm | Zone of inhibition S. pyogenes 71-698 (S. pyogenes 71-698; [5]): 1 mm | Zone of inhibition S. pyogenes 71-698 (S. pyogenes 71-698; K12, Raffinose 10% wt): 3 mm | Zone of inhibition S. pyogenes 71-698 (S. pyogenes 71-698; [6]): 3 mm | inhibitory activity of freeze-dried raw ingredient powder of K12 [1]: induced the inhibitory activity
